ChEMBL document CHEMBL5523770 (J Med Chem, 2024)

Assays:
in vitro = settings: male, Sprague-Dawley, rat, liver microsomes
[1] = target: T1, Nuclear receptor subfamily 1 group I member 2 (Homo sapiens, UniProt O75469); experiment: Inverse agonist activity at human PXR transfected in HEK293T cells incubated for 16 hrs by firefly/renilla based Dual-Glo luciferase assay; assay type: cell-based
T1 sequence (O75469 whole entry): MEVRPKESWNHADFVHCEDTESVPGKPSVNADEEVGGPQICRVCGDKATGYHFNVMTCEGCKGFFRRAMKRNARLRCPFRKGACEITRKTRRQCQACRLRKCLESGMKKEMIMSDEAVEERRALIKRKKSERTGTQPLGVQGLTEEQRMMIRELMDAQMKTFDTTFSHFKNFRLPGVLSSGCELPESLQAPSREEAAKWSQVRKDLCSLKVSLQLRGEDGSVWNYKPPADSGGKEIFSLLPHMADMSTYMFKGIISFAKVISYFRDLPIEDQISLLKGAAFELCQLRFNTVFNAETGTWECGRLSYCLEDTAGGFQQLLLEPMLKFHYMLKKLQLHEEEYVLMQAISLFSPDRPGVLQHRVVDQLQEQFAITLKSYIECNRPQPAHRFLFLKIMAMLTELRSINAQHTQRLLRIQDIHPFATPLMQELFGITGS

[2] = target: Nuclear receptor subfamily 4 group A member 3 (Homo sapiens, UniProt Q92570); experiment: Inverse agonist activity at human NOR-1 (393 to 626 residues) transfected in HEK293T cells incubated for 16 hrs by firefly/renilla based Dual-Glo luciferase assay; assay type: cell-based
Sequence of Nuclear receptor subfamily 4 group A member 3 (Q92570 whole entry, the tested form may be a part): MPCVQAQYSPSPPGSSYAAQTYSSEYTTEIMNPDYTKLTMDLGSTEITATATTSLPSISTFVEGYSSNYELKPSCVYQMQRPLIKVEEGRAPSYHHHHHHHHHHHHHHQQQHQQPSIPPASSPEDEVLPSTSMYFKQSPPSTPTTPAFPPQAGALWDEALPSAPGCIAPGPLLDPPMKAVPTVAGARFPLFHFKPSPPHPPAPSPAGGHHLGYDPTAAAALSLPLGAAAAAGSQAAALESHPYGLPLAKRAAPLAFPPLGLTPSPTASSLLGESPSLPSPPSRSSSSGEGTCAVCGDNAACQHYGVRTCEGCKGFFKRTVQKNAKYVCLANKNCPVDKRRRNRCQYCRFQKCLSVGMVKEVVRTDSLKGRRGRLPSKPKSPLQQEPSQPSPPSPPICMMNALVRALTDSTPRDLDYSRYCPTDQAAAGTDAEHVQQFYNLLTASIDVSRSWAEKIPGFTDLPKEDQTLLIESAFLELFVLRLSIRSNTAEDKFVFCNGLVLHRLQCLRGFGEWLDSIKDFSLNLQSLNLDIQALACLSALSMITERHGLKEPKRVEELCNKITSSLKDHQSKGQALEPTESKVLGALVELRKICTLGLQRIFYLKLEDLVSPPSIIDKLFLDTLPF

[3] = target: Nuclear receptor subfamily 4 group A member 2 (Homo sapiens, UniProt P43354); experiment: Inverse agonist activity at Gal4-fused human […] Nurr1 LBD transfected in HEK293T cells assessed as suppression of Nurr1 activation incubated for 16 hrs by firefly/renilla based Dual-Glo luciferase assay; assay type: cell-based
Sequence of Nuclear receptor subfamily 4 group A member 2 (P43354 whole entry, the tested form may be a part): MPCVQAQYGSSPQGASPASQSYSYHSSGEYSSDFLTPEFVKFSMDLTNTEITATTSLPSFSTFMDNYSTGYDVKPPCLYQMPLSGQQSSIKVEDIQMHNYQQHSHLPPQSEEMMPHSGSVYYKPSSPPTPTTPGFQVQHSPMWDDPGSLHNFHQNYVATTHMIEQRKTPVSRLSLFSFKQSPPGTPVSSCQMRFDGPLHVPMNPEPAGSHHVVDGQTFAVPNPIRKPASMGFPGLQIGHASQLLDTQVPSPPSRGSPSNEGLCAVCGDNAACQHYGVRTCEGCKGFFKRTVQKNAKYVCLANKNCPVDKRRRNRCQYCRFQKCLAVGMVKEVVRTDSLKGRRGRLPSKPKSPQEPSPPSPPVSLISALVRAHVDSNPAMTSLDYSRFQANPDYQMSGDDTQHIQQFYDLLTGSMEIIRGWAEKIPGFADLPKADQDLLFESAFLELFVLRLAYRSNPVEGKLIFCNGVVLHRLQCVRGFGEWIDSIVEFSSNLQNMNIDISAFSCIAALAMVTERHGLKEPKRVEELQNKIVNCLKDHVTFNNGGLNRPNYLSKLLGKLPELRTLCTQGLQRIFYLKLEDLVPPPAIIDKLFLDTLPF

[4] = target: T2, Nuclear receptor subfamily 1 group I member 3 (Homo sapiens, UniProt Q14994); experiment: Inverse agonist activity at human CAR transfected in HEK293T cells incubated for 16 hrs by firefly/renilla based Dual-Glo luciferase assay; assay type: cell-based
T2 sequence (Q14994 whole entry): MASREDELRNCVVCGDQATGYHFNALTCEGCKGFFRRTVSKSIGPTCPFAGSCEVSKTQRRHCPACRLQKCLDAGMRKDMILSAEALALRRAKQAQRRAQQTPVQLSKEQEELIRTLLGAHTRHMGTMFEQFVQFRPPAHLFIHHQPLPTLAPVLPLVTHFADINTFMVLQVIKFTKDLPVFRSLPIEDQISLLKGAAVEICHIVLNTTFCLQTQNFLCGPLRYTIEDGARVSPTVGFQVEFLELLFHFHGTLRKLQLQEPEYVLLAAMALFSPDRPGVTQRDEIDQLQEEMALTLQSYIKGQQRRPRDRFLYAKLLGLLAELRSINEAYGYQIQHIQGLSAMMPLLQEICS

Row | Structure (SMILES) | half-life at 1 h, 10 µM (in vitro) | Activity [1] | IC50 [2] | other results
1 | Cc1cccc(-c2oc(CCC(=O)O)nc2-c2ccccc2)c1 |  |  |  | IC50 [3]: > 50 µM
2 | CC(C)NCC(O)COc1cccc2ccccc12 (stereo not drawn) [PROPRANOLOL] | 64 min |  |  | 
3 | CN(C)C(=O)CCc1nc(-c2ccccc2)c(-c2ccccc2Cl)o1 |  | Active | 29 µM | Activity [4]: Active

More lines, main results first:

Row | half-life at 1 h, 10 µM (in vitro) | Activity [1] | IC50 [2] | Structure (SMILES) | other results
4 | 30 min |  |  | CN(C)C(=O)/C=C/c1nc(-c2ccccc2)c(-c2ccccc2)o1 | 
5 |  | Active | 3.8 µM | O=C(O)/C=C/c1nc(-c2ccccc2)c(-c2ccccc2)o1 | 
